Results reported in patent US4578382A, “4-acylamino-1-azaadamantanes, and compositions for use thereof in medicine” (Etablissements Nativelle S.A., priority 1981, dated 1986).
Where two headings read alike, the source gives them in different places.

What was measured:
[1] = tested on: ventricular arrhythmias and death induced by the aconitine; assay: Aconitine intoxication test in the anesthetized rat; format: in vivo; conditions: i.v., vs untreated control
From the text: (§1) Narcisse et al, Ann. Pharma. Fr., 37, 325-330 (1979), in the rat by the aconitine intoxication test of S. Witchitz et al, Coeur Med. Int., X(2), 281-286, (1971) and in the dog by the Harris test described in Circulation, 1, 1318, (1950) and by the test with adrenalin after experimental infarct of I. J. Steffe et al, J. Pharmacol. Exp. Ther., 214, 50-57 (1980).
The anesthetized rat was intoxicated with an intravenous perfusion of aconitine while its electrocardiogram (ECG) was permanently recorded. During the perfusion at constant rate, the time necessary for the appearance of ventricular arrhythmias, successive extrasystoles (ESV), then stable ventricular tachycardium (TV) and the time within which the animal died were measured.
The animals were divided into a control group (untreated) and treated groups (different doses). The results are expressed as a percentage of prolonging the time of appearance of the arrhythmias and of death of the treated groups in reaction to the control group.
The results obtained are shown in Table 4 below and express the percentage of prolongation of the time of appearance of ventricular arrhythmias (ventricular extrasystoles and ventricular tachycardiums), and of the death, induced by the aconitine after an intravenous injection (I.V.) of several derivatives of the invention, in relation to a group of untreated control animals.

[2] = tested on: anoxic ventricular fibrillation; assay: Lawson test (cardiac antifibrillatory power, chloroform); format: in vivo; conditions: ip; mouse, intraperitoneal, 10 minutes before chloroform
Procedure: The Lawson test is a test for the study of the cardiac antifibrillatory power of the derivatives. The mice (20 per group) received an intraperitoneal injection of the derivative 10 minutes before being placed in a chloroform-saturated atmosphere. Upon respiratory arrest, the thorax was opened (5 to 10 seconds) and whether or not the heart was in ventricular fibrillation was checked. The efficacy dose 50 (ED 50) of the derivative being studied is the dose which protects half the mice against anoxic ventricular fibrillation.

[3] = as above; conditions: in vivo, ip; mouse, intraperitoneal; read-out: Maximum Dose Tolerated
anesthetized dog [4] = assay: Hemodynamic (cardiovascular) tolerance in the anesthetized dog; format: in vivo; conditions: i.v., vs control period
Procedure: The hemodynamic tolerance of the derivatives of the invention was studied on dogs anesthesized with sodium pentobarbital. Endocavitary pressures were measured by means of catheters connected to Statham sensors while external recording of the electrocardiogram (E.C.G.) provided the measurement of cardiac frequency. Cardiac flow was measured by means of an electromagnetic sensor placed on the beginning of the aorta. The total peripheral resistances R were calculated from the value of the average aortic pressure (P) and the cardiac flow (Q) in accordance with the formula R=P/Q.
After measurement of the parameters during a control period, the derivatives were injected intravenously in cumulative doses (30 minute interval between doses). The variations of the parameters in relation to the control period were measured within 20 and 30 minutes after each injection and are expressed as a percentage of variation in relation to the control.
Table 2 summarizes the variations in hemodynamic parameters observed between the first and last injections.

[5] = tested on: ventricular arrhythmias with adrenalin; assay: Test with adrenalin after experimental infarct; format: in vivo, dog
From the text: as §1
2 to 5 days after an experimental infarct, the effects of discontinuous injections (in intravenous bolus of […] of basic adrenalin) of adrenalin were observed on the electrocardioagram of the conscious dog.
During a first phase (control) of the experiment, three successive injections of adrenalin were given and, in the 2 minutes following each injection, the frequency of the ventricular extrasystoles was measured. In this manner, by increasing the dose of adrenalin as necessary, it was possible to determine the dose which caused the appearance of ventricular extrasystoles at a higher frequency than or equal to half the total number of ventricular systoles.
After injection of the derivative to be tested, the same dose of adrenalin was reinjected after 5 minutes, then 30 minutes, 60 minutes, 90 minutes, etc., and its effects were compared to those observed during the control period.
The results therein are expressed as a percentage of extrasystoles (on the total number of systoles) measured during the 2 minutes following the injection of adrenalin before and after the administration of the derivative to be tested.

anesthetized dog [6] = assay: Electrophysiological studies on the anesthetized dog; format: in vivo; conditions: i.v., 2 evaluations
Procedure: This study was carried out on dogs anesthetized with pentobarbital, with a closed thorax, by means of bipolar catheter-electrodes introduced into the cardiac cavities by transcutaneous venous and arterial means. The surface electrocardiogram (standard derivation D2) is recorded permanently.
By means of a programmable JANSEN (R) stimulator, the following parameters may be measured:
spontaneous cardiac frequency (FC);
sinus recuperation time (SRTc) after auricular stimulation imposed at 160 b/mn for 1 mn;
intracardiac conduction times (auriculohisien at a constant frequency, His-Purkinje, intraventricular);
the effective and functional refractory periods measured at an imposed constant frequency, with the extrastimulus method.
During the electrophysiological study, the derivatives were injected intravenously for 2 minutes for each dose and at 30 minute intervals between each dose. The doses are expressed as a cumulative value and as a base term.
The measurement of the various parameters was carried out before the injection of the first dose (control period) and from 10 to 28 minutes after the injection of each dose of the substance. The results are expressed as a percentage of variation in relation to the control period.

[7] = Acute toxicity in the mouse (LD 50, Litchfield and Wilcoxon); conditions: in vivo
Procedure: The acute toxicity of the derivatives of the invention were studied by intraperitoneal administration (I.P.) on the mouse (10 animals, 5 males and 5 females per dose) and calculation of the lethal dose 50 (LD 50) in accordance with the method of Litchfield and Wilcoxon (J. Pharmacol. 96, 99-113 (1949)).
In certain cases (derivatives of Examples 4, 6, 9), the LD 50 was also calculated after oral administration (P.O.) of the derivatives.

ventricular arrhythmias = assay: Harris test (ventricular arrhythmias after experimental infarct); format: in vivo, dog
From the text: as §1
The ligature of the anterior interventricular artery in the anesthetized dog causes the appearance of an experimental infarct of the myocardium followed by considerable ventricular arrhythmias.
The dogs were studied 24 to 48 hours after the intervention. The electrocardiogram (ECG) was then recorded permanently, the conscious dog being at rest in an isolated laboratory. After a period of 3 hours of ECG recording, allowing for the measurement of the cardiac frequency of the dog the frequency of ventricular extrasystoles (ESV)--pre-treatment control period--the derivative to be studied was injected intravenously for 1 minute. Continuous recording of the ECG enabled, in the hours following the injection, measurement of the frequency of the ESV/mn for successive periods from 30 to 60 min. The number of ESV per minute measured for 3 hours during the control period varied from 66 to 172/min with an average of 111/min. […] The length of this antiarrhythmic effect observed varied depending on the derivatives from 1 hour to more than 5 hours. For example, the percentage decrease of the ESV/min in the case of the derivative of Example 11 (cumulative dose 14 mg/kg) was 96% (0 to 1/2 hour), 50% (1/2 to 1 hour) and 68% (1 to 2 hour). The corresponding values for the derivative of Example 4 (3 mg/kg) were 44%, 55% and 45%, respectively.

[8] = 1 mg/kg, control period 48% of ESV
[9] = ip, intraperitoneal, read-out: LD 50 I.P.
[10] = cumulative doses 0.3 to 10 mg/kg
[11] = 14.3 mg/kg, control period 74% of ESV

Structure (SMILES): CC1(NC(=O)Cc2ccccc2)C2CC3CC1CN(C2)C3(C)C (centres unmarked) [Example 9, N-phenylacetyl-4-amino-4,8,8-trimethyl-1-azaadamantane]
- Prolongation of time of appearance of ventricular extrasystoles (ESV) ([1]; 10 mg/kg): +31%
- Prolongation of time of appearance of ventricular tachycardium (TV) ([1]; 10 mg/kg): +79%
- Prolongation of time to death ([1]; 10 mg/kg): +44%
- Prolongation of time of appearance of ventricular extrasystoles (ESV) ([1]; 20 mg/kg): +100%
- Prolongation of time of appearance of ventricular tachycardium (TV) ([1]; 20 mg/kg): +79%
- Prolongation of time to death ([1]; 20 mg/kg): +84%
- Prolongation of time of appearance of ventricular extrasystoles (ESV) ([1]; 40 mg/kg): +171%
- Prolongation of time of appearance of ventricular tachycardium (TV) ([1]; 40 mg/kg): +147%
- Prolongation of time to death ([1]; 40 mg/kg): +88%
- ED50 [2]: 90 mg/kg
- MTD [3]: 200 mg/kg
- Cardiac Flow, percentage of variation (anesthetized dog [4]; cumulative doses 1 to 10 mg/kg): 0 to -30%
- Cardiac Frequency, percentage of variation (anesthetized dog [4]; cumulative doses 1 to 10 mg/kg): 0 to -12%
- Total Peripheral Resistances, percentage of variation (anesthetized dog [4]; cumulative doses 1 to 10 mg/kg): -5 to +15%
- dp/dt/p Left Ventricular, percentage of variation (anesthetized dog [4]; cumulative doses 1 to 10 mg/kg): 0 to -33%
- ESV Percentage at 5 min [5, 8]: 11%
- ESV Percentage at 30 min [5, 8]: 27%
- ESV Percentage at 60 min [5, 8]: 45%
- F.C. (cardiac frequency), variation (anesthetized dog [6]; doses 1 to 19 mg/kg): 0%
- HV (time of His-Purkinje conduction), variation (anesthetized dog [6]; doses 1 to 19 mg/kg): +18 to +100%
- PREA (effective auricular refractory period), variation (anesthetized dog [6]; doses 1 to 19 mg/kg): +6 to +45%
- PREV (effective ventricular refractory period), variation (anesthetized dog [6]; doses 1 to 19 mg/kg): +2 to +15%
- QRS (time of intraventricular conduction), variation (anesthetized dog [6]; doses 1 to 19 mg/kg): 0 to +23%
- St-H (time of auriculohisien conduction), variation (anesthetized dog [6]; doses 1 to 19 mg/kg): 0 to +30%
- LD50 [7, 9]: 430 mg/kg
- LD50 ([7]; oral, read-out: LD 50 P.O.): 2400 mg/kg

Structure (SMILES): CC1(NC(=O)CCc2ccccc2)C2CC3CC1CN(C2)C3(C)C (centres unmarked) [Example 4, N-(3-phenylpropionyl)-4-amino-4,8,8-trimethyl-1-azaadamantane]
- Percentage decrease of the ESV/min (ventricular arrhythmias; 3 mg/kg i.v., 0 to 1/2 hour): 44%
- Percentage decrease of the ESV/min (ventricular arrhythmias; 3 mg/kg i.v., 1/2 to 1 hour): 55%
- Percentage decrease of the ESV/min (ventricular arrhythmias; 3 mg/kg i.v., 1 to 2 hour): 45%
- Prolongation of time of appearance of ventricular extrasystoles (ESV) ([1]; 5 mg/kg): +37%
- Prolongation of time of appearance of ventricular tachycardium (TV) ([1]; 5 mg/kg): +50%
- Prolongation of time to death ([1]; 5 mg/kg): +25%
- Prolongation of time of appearance of ventricular extrasystoles (ESV) ([1]; 10 mg/kg): +60%
- Prolongation of time of appearance of ventricular tachycardium (TV) ([1]; 10 mg/kg): +86%
- Prolongation of time to death ([1]; 10 mg/kg): +39%
- Prolongation of time of appearance of ventricular extrasystoles (ESV) ([1]; 20 mg/kg): +103%
- Prolongation of time of appearance of ventricular tachycardium (TV) ([1]; 20 mg/kg): +89%
- Prolongation of time to death ([1]; 20 mg/kg): +65%
- ED50 [2]: 72 mg/kg
- MTD [3]: 200 mg/kg
- Cardiac Flow, percentage of variation (anesthetized dog [4]; [10]): -7 to -23%
- Cardiac Frequency, percentage of variation (anesthetized dog [4]; [10]): -7%
- Systolic Arterial Pressure, percentage of variation (anesthetized dog [4]; [10]): -7 to -28%
- Total Peripheral Resistances, percentage of variation (anesthetized dog [4]; [10]): 0 to -13%
- dp/dt/p Left Ventricular, percentage of variation (anesthetized dog [4]; [10]): 0 to -40%
- ESV Percentage at 5 min [5, 11]: 36%
- ESV Percentage at 30 min [5, 11]: 59%
- ESV Percentage at 60 min [5, 11]: 60%
- F.C. (cardiac frequency), variation (anesthetized dog [6]; doses 0.3 to 14.3 mg/kg): 0%
- HV (time of His-Purkinje conduction), variation (anesthetized dog [6]; doses 0.3 to 14.3 mg/kg): 0 to +80%
- PREA (effective auricular refractory period), variation (anesthetized dog [6]; doses 0.3 to 14.3 mg/kg): +10 to +35%
- PREV (effective ventricular refractory period), variation (anesthetized dog [6]; doses 0.3 to 14.3 mg/kg): 0 to +10%
- QRS (time of intraventricular conduction), variation (anesthetized dog [6]; doses 0.3 to 14.3 mg/kg): 0 to +15%
- St-H (time of auriculohisien conduction), variation (anesthetized dog [6]; doses 0.3 to 14.3 mg/kg): +7 to +10%
- LD50 [7, 9]: 375 mg/kg
- LD50 ([7]; oral, read-out: LD 50 P.O.): 2400 mg/kg

Structure (SMILES): CC1(NC(=O)CCCc2ccccc2)C2CC3CC1CN(C2)C3(C)C (centres unmarked) [Example 11, N-(4-phenylbutyryl)-4-amino-4,8,8-trimethyl-1-azaadamantane]
- Percentage decrease of the ESV/min (ventricular arrhythmias; cumulative dose 14 mg/kg i.v., 0 to 1/2 hour): 96%
- Percentage decrease of the ESV/min (ventricular arrhythmias; cumulative dose 14 mg/kg i.v., 1/2 to 1 hour): 50%
- Percentage decrease of the ESV/min (ventricular arrhythmias; cumulative dose 14 mg/kg i.v., 1 to 2 hour): 68%
